Reference: PMC10447463, “Data-mining unveils structure–property–activity correlation of viral infectivity enhancing self-assembling peptides” (Nature Communications, 2023)
Like-named read-outs stand apart in the source and are kept apart here.

Tests used:
[1] = format: physicochemical; parameters: key to Fibril / Fibril Formation / TEM 2cat / Fibril: 1 = fibrils present; 0 non-fibrillar structures; details: for Fibril / Fibril Formation: TEM, 1 mg/mL, uranyl acetate stain, qualitative
[2] = Zeta-potential measurement; format: physicochemical; details: for Zeta pot. / mV: 1 mg/mL in PBS pH 7.4 from 10 mg/mL DMSO stock, 1 d RT, 60 µL diluted in 600 µL 1 mM KCl, Zetasizer Nano ZS, Smoluchowski, mean of triplicate; for Zeta-pot. / mV: zeta potential of peptide, Fig S15 source data
Summary of the method: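 Samples: 1 mg/mL in PBS pH 7.4 (from DMSO), 1 d at RT, then diluted in 1 mM KCl immediately before measurement. Triplicates, two independent runs averaged.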

[3] = system: HIV-1 infection of TZM-bl cells; test: HIV-1 infectivity enhancement assay, β-galactosidase luminescence; format: cell-based
[4] = Turbidity, derived count rate of scattered light; format: physicochemical; details: for Count Rate / kcps: derived count rate of scattered light at 633 nm, 173°, from zeta-potential measurement, 0.1 mg/mL in 1 mM KCl after 1 d at 1 mg/mL in PBS, turbidity / microscopic aggregation, mean of triplicate
Summary of the method: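 One-day room-temperature aggregation at 1 mg/mL in PBS (pH 7.4) preceded measurement; samples then went into 1 mM KCl. Triplicates per sample, two independent experiments averaged.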

[5] = n-fold infection vs virus only, relative to that of EF-C, 1.3 µM peptide
[6] = log10 of infection relative to EF-C, Figure 7B
[7] = Feb2021 run; infectivity n-fold relative to virus alone
[8] = Feb2021 run; log10 of infectivity relative to EF-C
[9] = Feb2021 run; n-fold infectivity relative to EF-C
[10] = infectivity class (low / medium / high) of each library peptide; main list in c1-c6, same classes repeated in sub-lists of sequences containing the hydrophobicity/charge patterns P+,H0,P+,H0,P0,H0,P0; P+,H0,P0,H0,P0,H0,P0; P+,H0,P0,H0
[11] = infectivity class (low / medium / high) of the peptide in the sequence-pattern analysis, Fig. S22-A4; class limits not given
[12] = log10 of HIV-1 infection of TZM-bl cells relative to EF-C; Fig S15 source data; asymmetric std dev errors
[13] = derived count rate of scattered light, mean, std deviation in separate column
[14] = Feb2021; figures match the 1.3 µM column
[15] = Feb2021; infectivity relative to virus only
[16] = Feb2021; log10 of infectivity relative to EF-C
[17] = Feb2021; n-fold infectivity relative to EF-C
[18] = infectivity enhancement relative to EF-C (=1); Feb2021 run
[19] = infectivity n-fold relative to virus only; Feb2021 run
[20] = log10 of infectivity relative to EF-C; Feb2021 run
[21] = derived count rate from zeta measurement, mean
[22] = derived count rate of scattered light

Substance	Fibril / Fibril Formation [1]	Inf. rel. EF-C [3, 5]	Count Rate / kcps [4]	Zeta pot. / mV [2]	Zeta-Potential / mV ([2]; mean, Figure 7B)	Log10 Infection Rel EF-C [3, 6]	TEM: 1= fibrils, 0= aggregates (micelle), 0.5 = aggregates and fibrils, -1 = nothing obersved, STD prep [1]	Zeta category ( +1 = if > 4 mV;-1 = if < -4 mV; 0 = -4mV to 4 mV) [2]	Zeta Pot. / mV ([2]; mean, Std in separate column)	Zeta-pot. / mV [2]	n-fold to virus (Feb2021) [3, 7]	Log10 of Rel to EFC (Feb2021) [3, 8]	Rel-to EFC (Feb-2021) [3, 9]	infectivity [3, 10]	Log10 Inf. rel. to EF-C [3, 12]	Zeta Count Rate / kcps [4, 13]	further results
RINFWFW	0	0.04	50995.8 kcps	–	–	–	–	–	–	–	–	–	–	–	–	–	Zeta-Potential / mV ([2]; mean, Figure 6C): 10.8 mV; Log10 Infection Rel EF-C ([3]; log10 of infection relative to EF-C, Figure 6C): -1.347; Log10 Count Rate ([4]; log10 of derived count rate of scattered light, Figure 6C): 4.708; Log10 Count Rate ([4]; logarithm of count rate in kcps): 4.708
RATVYV [reference compound]	1	0.04	42 kcps	-5.2 mV	-5.17 mV	-1.38	–	–	–	–	–	–	–	–	–	–	–
KIKIQINMWWWQ [VH12]	–	–	–	–	–	–	0.5	1 (+1 = if > 4 mV)	9.45 mV	9.45 mV	115.5	0.4391	2.749	high	0.4391	7596.3 kcps	infectivity [3, 11]: high
IKFLSVN [reference compound]	1	0.07	137 kcps	5.9 mV	5.9 mV	-1.16	–	–	–	–	–	–	–	–	–	–	infectivity enhancement, in words ([3]; fibril-forming peptides with positive zeta-potential, low count rate): do not enhance infectivity
RGDKIKIQINM [MG8a / CN17]	–	–	–	–	–	–	1	1 (+1 = if > 4 mV)	16.43 mV	16.43 mV	17.36	-0.3838	0.4132	medium	-0.3838	57.2 kcps	Zeta Pot. / mV [2]: 16.43 mV; Absolute Infectivity / RLU /s (Feb2021) [3, 14]: 9554 RLU /s; n-fold to virus (Feb2021) [3, 15]: 17.36; Log10 of Rel to EFC (Feb2021) [3, 16]: -0.3838; Rel-to EFC (Feb-2021) [3, 17]: 0.4132; Rel-to EFC (Feb-2021) [3, 18]: 0.4132; n-fold to virus (Feb2021) [3, 19]: 17.36; Log10 of Rel to EFC (Feb2021) [3, 20]: -0.3838; Zeta Count Rate Category ([4]; category 1 / 0, no key given): 0; Zeta Count Rate / kcps [4, 21]: 57.2 kcps; Zeta Count Rate / kcps [4, 22]: 57.2 kcps; Zeta Count Rate Category ([4]; key not given): 0
KLVFFAK [reference compound]	1	0.07	14 kcps	3.2 mV	3.23 mV	-1.15	–	–	–	–	–	–	–	–	–	–	–
CKIKIQIII [AR0 / F19]	–	–	–	–	–	–	1	1 (+1 = if > 4 mV)	16.2 mV	16.2 mV	41.02	-0.01045	0.9762	high	-0.01045	4953 kcps	infectivity [3, 11]: high
KFKFQFFF [TG12]	–	–	–	–	–	–	1	1 (+1 = if > 4 mV)	13.27 mV	13.27 mV	16.97	-0.3937	0.404	medium	-0.3936	3039 kcps	Zeta Pot. / mV [2]: 13.27 mV; Absolute Infectivity / RLU /s (Feb2021) [3, 14]: 8657 RLU /s; n-fold to virus (Feb2021) [3, 15]: 16.97; Log10 of Rel to EFC (Feb2021) [3, 16]: -0.3937; Rel-to EFC (Feb-2021) [3, 17]: 0.404; Rel-to EFC (Feb-2021) [3, 18]: 0.404; n-fold to virus (Feb2021) [3, 19]: 16.97; Log10 of Rel to EFC (Feb2021) [3, 20]: -0.3937; Zeta Count Rate Category ([4]; category 1 / 0, no key given): 1; Zeta Count Rate / kcps [4, 21]: 3039 kcps; Zeta Count Rate / kcps [4, 22]: 3039 kcps; Zeta Count Rate Category ([4]; key not given): 1
